Data on five compounds can be found in patent US20210315869A1, “COMPOUNDS AND METHODS FOR CSK MODULATION AND INDICATIONS THEREFOR” (Plexxikon Inc., priority 2020, published 2021).

For one assay, the target named is T1, CSK (Homo sapiens, UniProt P41240).
T1 construct: purchased Thermo Fisher
Briefly: Human CSK enzymatic assay (AlphaScreen, Poly (Glu4-Tyr) substrate). It counts as biochemical. Particulars: 100 uM ATP; read-out: CSK IC50 (μM) COFACTOR: 100 uM ATP. The method, then:
This assay measures the ability of CSK to phosphorylate a biotinylated peptide containing multiple tyrosine residues in vitro. The CSK enzyme was purchased from Thermo Fisher. The biotinylated Poly (Glu4-Tyr) peptide substrate was purchased from Sigma-Aldrich. The CSK enzyme assay was performed using 0.75 ng CSK enzyme and 30 nM Poly (Glu4-Tyr) substrate in the presence of 25 mM Hepes pH 7.5, 5 mM Mg Acetate, 0.1% NP-40, 1 mM DTT, 0.01% BSA, and 100 μM ATP. A 19 μL volume of the above reaction mixture was added to wells of 384-well AlphaPlate (PerkinElmer GA, USA) containing 1 μL of various concentrations of test compound or DMSO vehicle and incubated for 60 minutes at room temperature. 16 wells containing all the components of reaction mixture and 5% DMSO serve as high control. 16 wells containing all the components except ATP of reaction mixture and 5% DMSO served as low control. The enzymatic reaction was stopped by the addition of 5 μL stop/detection mixture containing 25 mM Hepes pH 7.5 100 mM EDTA, and 5 μg/mL streptavidin-coated AlphaScreen donor beads (PerkinElmer GA, USA) and incubated for 20 minutes. A 5 μL mixture containing 25 mM Hepes pH 7.5, 100 mM EDTA, and 5 μg/mL anti-phosphotyrosine antibody PY20-coated AlphaScreen acceptor beads (PerkinElmer GA, USA) was added and the plate was incubated for 1 hour at room temperature. The streptavidin donor beads bind to the biotin moiety on the biotinylated Poly (Glu4-Tyr) substrate and the PY20 antibody-coated acceptor beads bind to tyrosine residues on the substrate that have been directly phosphorylated by CSK. Upon excitation of these beads with laser light at 680 nm, singlet oxygen was produced. This singlet oxygen was rapidly quenched, unless the AlphaScreen PY20 acceptor beads are in close proximity, in which case a proximity signal can be measured at 580 nm. In the presence of catalytic activity, there was a very strong proximity signal. Selective CSK inhibitors affect a decrease in this proximity signal through a decrease in phosphorylation of the Poly (Glu4-Tyr) substrate. The percentage of inhibition at individual concentrations relative to high and low controls was calculated. The data were analyzed by using nonlinear regression to generate IC50 values. Human LCK enzymatic assay

Another assay deals with T2, LCK (Homo sapiens, UniProt P06239).
T2 construct: purchased ProQinase
Briefly: Human LCK enzymatic assay (AlphaScreen, Poly (Glu4-Tyr) substrate). Format: biochemical. Particulars: 100 uM ATP; read-out: LCK IC50 (uM) COFACTOR: 100 uM ATP. On the procedure:
This assay measures the ability of LCK to phosphorylate a biotinylated peptide containing multiple tyrosine residues in vitro. The LCK enzyme was purchased from ProQinase. The biotinylated Poly (Glu4-Tyr) peptide substrate was purchased from Sigma-Aldrich. The LCK enzyme assay was performed using 1 ng LCK enzyme and 30 nM Poly (Glu4-Tyr) substrate in the presence of 25 mM Hepes pH 7.5, 10 mM MnCl2, 50 mM NaCl, 0.01% Tween-20, 0.5 mM DTT, 0.01% BSA, and 100 μM ATP. A 19 μL volume of the above reaction mixture was added to wells of 384-well AlphaPlate (PerkinElmer GA, USA) containing 1 μL of various concentrations of test compound or DMSO vehicle and incubated for 40 minutes at 25° C. 16 wells containing all the components of reaction mixture and 5% DMSO served as high control. 16 wells containing all the components except ATP of reaction mixture and 5% DMSO served as low control. The enzymatic reaction was stopped by the addition of 5 μL stop/detection mixture containing 25 mM Hepes pH 7.5 100 mM EDTA, and 10 μg/mL streptavidin-coated AlphaScreen donor beads (PerkinElmer GA, USA) and incubated for 20 minutes. A 5 μL mixture containing 25 mM Hepes pH 7.5, 100 mM EDTA, and 10 μg/mL anti-phosphotyrosine antibody PY20-coated AlphaScreen acceptor beads (PerkinElmer GA, USA) was added and the plate was incubated for 1 hour at room temperature. The streptavidin donor beads bind to the biotin moiety on the biotinylated Poly (Glu4-Tyr) substrate and the PY20 antibody-coated acceptor beads bind to tyrosine residues on the substrate that have been directly phosphorylated by LCK. Upon excitation of these beads with laser light at 680 nm, singlet oxygen was produced. This singlet oxygen was rapidly quenched, unless the AlphaScreen PY20 acceptor beads are in close proximity, in which case a proximity signal can be measured at 580 nm. In the presence of catalytic activity, there was a very strong proximity signal. Selective LCK inhibitors affect a decrease in this proximity signal through a decrease in phosphorylation of the Poly (Glu4-Tyr) substrate. The percentage of inhibition at individual concentrations relative to high and low controls was calculated. The data were analyzed by using nonlinear regression to generate IC50 values.

The test system of the next assay is Jurkat/NFAT-RE cells. The assay can be described thus: NFAT reporter assay (luciferase) in Jurkat/NFAT-RE cells. It counts as cell-based. Particulars: Homo sapiens, 0.02 μg/mL anti-CD3 antibody OKT3, 3 hours, read-out: Jurkat EC50 (uM) Cell Assay: Reporter Cell Variant: NFAT response element. The text has this:
To assess the ability of CSK inhibitors to activate LCK and stimulate signaling downstream of the T-cell receptor, an NFAT reporter assay was used for monitoring of LCK activation in cells through the activation of LCK-dependent signaling through a reporter assay. The Jurkat T-cell cell line was genetically engineered to express a luciferase reporter that is regulated by the NFAT-response element. (Clipstone, N. A., & Crabtree, G. R., Identification of calcineurin as a key signalling enzyme in T-lymphocyte activation, Nature, 357(6380), 695-697, 1992). Stimulation of the T-cell receptor with anti-CD3 antibody increases the expression of the luciferase reporter. To test the ability of CSK inhibitors to stimulate LCK and downstream T-cell signaling, the cells were stimulated with a suboptimal concentration of anti-CD3 ligand, to measure the ability of CSK inhibitors to increase luciferase expression.
This assay measures the signaling activity downstream of the T-cell receptor, specifically the ability of the NFAT transcription factor to be translocated to the nucleus and induce expression of a firefly luciferase gene. Jurkat/NFAT-RE cells stably expressing the NFAT reporter construct were purchased from BPS Bioscience. The assay was performed by plating 40,000 Jurkat/NFAT-RE cells in a 50 μL volume of serum-free growth media in a 96-well plate. Following an overnight incubation, the cells were treated with CSK inhibitors and 0.02 μg/mL anti-CD3 antibody OKT3 (BD Bioscience) for 3 hours at 37° C. High control wells were stimulated with DMSO and 5 μg/mL OKT3 to maximally stimulate the NFAT reporter, and low control wells were stimulated with DMSO and 0.02 μg/mL OKT3. Following the 3 hour incubation, the cells were assayed for viability using CellTiter-Fluor™ (Promega), and for luciferase expression using ONE-Glo™ (Promega). The ONE-Glo™ signal was normalized to the CellTiter-Fluor™ signal, and the percentage of NFAT activation relative to high and low controls was calculated. The data were analyzed by using nonlinear regression to generate EC50 values. Selective CSK inhibitors affect an increase in luciferase expression in the presence of low level stimulation of the T-cell receptor.

Structures are written as SMILES.

T1 sequence (P41240 whole entry): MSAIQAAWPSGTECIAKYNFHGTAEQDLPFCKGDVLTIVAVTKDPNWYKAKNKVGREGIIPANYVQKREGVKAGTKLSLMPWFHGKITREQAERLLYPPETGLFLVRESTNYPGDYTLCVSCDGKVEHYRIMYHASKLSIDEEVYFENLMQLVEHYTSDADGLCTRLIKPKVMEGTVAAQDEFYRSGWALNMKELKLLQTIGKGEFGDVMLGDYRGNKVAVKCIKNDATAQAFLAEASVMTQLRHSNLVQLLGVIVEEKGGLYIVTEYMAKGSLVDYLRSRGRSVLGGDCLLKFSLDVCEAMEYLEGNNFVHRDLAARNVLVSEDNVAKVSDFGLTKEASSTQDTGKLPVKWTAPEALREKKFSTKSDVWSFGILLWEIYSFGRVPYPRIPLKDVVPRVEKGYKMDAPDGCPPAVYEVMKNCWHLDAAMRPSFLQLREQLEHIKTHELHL
T2 sequence (P06239 whole entry): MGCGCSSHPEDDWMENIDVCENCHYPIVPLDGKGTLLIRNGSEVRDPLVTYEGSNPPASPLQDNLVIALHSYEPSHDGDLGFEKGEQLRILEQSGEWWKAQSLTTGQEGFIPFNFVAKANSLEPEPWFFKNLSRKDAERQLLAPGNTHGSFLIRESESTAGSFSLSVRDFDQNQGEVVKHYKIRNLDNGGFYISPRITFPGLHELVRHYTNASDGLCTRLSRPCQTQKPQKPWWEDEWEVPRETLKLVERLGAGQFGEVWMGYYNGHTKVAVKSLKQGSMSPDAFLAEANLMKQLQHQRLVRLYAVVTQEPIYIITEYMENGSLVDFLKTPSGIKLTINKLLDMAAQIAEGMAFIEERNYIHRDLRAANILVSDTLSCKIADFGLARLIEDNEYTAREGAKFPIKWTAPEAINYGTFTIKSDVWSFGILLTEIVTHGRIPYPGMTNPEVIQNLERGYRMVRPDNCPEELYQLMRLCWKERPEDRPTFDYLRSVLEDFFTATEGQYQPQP

Consider `Nc1cc2c(cn1)cc(-c1c(F)ccc(NS(=O)(=O)c3cc4scnc4cc3F)c1F)c(=O)n2C1CCC1` [P-0024, N-(3-(7-amino-1-cyclobutyl-2-oxo-1,2-dihydro-1,6-naphthyridin-3-yl)-2,4-difluorophenyl)-5-fluorobenzo[d]thiazole-6-sulfonamide], for which the half-maximal inhibitory concentration (IC50) fell in the range of 0.001 to 0.5 µM at CSK and 5 to 100 µM at LCK. Also, the EC50 in the assay on Jurkat/NFAT-RE cells was 0.001 to 0.5 µM.
As to `CC(F)(F)Cn1c(=O)c(-c2c(F)ccc(NS(=O)(=O)c3cc4scnc4cc3F)c2F)cc2cnc(N)cc21` [P-0016, N-(3-(7-amino-1-(2,2-difluoropropyl)-2-oxo-1,2-dihydro-1,6-naphthyridin-3-yl)-2,4-difluorophenyl)-5-fluorobenzo[d]thiazole-6-sulfonamide], the IC50 was 0.001 to 0.5 µM on CSK and 5 to 100 µM on LCK. The EC50 in the assay with Jurkat/NFAT-RE cells is 0.001 to 0.5 µM.
In the case of `COCCNc1cc2c(cn1)cc(-c1c(F)ccc(NS(=O)(=O)c3cc4scnc4cc3F)c1F)c(=O)n2CC1CC1` [P-0011, N-(3-(1-(cyclopropylmethyl)-7-((2-methoxyethyl)amino)-2-oxo-1,2-dihydro-1,6-naphthyridin-3-yl)-2,4-difluorophenyl)-5-fluorobenzo[d]thiazole-6-sulfonamide], the results for the IC50 on CSK and on LCK were 0.001 to 0.5 µM and 5 to 100 µM, respectively. Also, the EC50 with Jurkat/NFAT-RE cells was in the range of 0.5 to 5 µM.
In the case of `Nc1cc2[nH]c(=O)c(-c3c(F)ccc(NS(=O)(=O)c4cc5scnc5cc4F)c3F)cc2cn1` [P-0007, N-(3-(7-amino-2-oxo-1,2-dihydro-1,6-naphthyridin-3-yl)-2,4-difluorophenyl)-5-fluorobenzo[d]thiazole-6-sulfonamide], the results for the IC50 at CSK and on LCK were 0.001 to 0.5 µM and 5 to 100 µM, respectively. The EC50 in the assay with Jurkat/NFAT-RE cells was 0.5 to 5 µM.
In the case of `COCCn1c(=O)c(-c2c(F)ccc(NS(=O)(=O)c3cc4scnc4cc3F)c2F)cc2cnc(N)cc21` [P-0004, N-(3-(7-amino-1-(2-methoxyethyl)-2-oxo-1,2-dihydro-1,6-naphthyridin-3-yl)-2,4-difluorophenyl)-5-fluorobenzo[d]thiazole-6-sulfonamide], the half-inhibitory concentration (IC50) at CSK was in the range of 0.001 to 0.5 µM; at LCK, 5 to 100 µM. The EC50 with Jurkat/NFAT-RE cells is 0.5 to 5 µM.
